Measured values reported in patent US9994594B2, “Inhibitors of arginase and their therapeutic applications” (MARS, INCORPORATED, priority 2010, dated 2018).
Structures can show the parent of a compound that is named as a salt. Where two headings read alike, the source gives them in different places.

Columns and labels:
[1] = target: T1, arginase II (ARG II) (Homo sapiens, UniProt P78540); experiment: Inhibition of arginase II, spectrophotometric urea assay at 530 nm; format: biochemical
T1 sequence (P78540 23-354): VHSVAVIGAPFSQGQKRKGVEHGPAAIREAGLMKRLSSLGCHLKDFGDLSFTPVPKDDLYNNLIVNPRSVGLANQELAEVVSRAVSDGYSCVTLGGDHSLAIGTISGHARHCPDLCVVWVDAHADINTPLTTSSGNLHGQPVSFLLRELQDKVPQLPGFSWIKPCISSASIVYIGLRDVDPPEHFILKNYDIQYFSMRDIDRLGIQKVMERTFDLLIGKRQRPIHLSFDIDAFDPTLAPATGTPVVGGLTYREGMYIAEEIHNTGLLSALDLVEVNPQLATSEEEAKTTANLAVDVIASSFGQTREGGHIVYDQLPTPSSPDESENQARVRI
In short: (§1)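 IC50 was derived by regression of OD530 normalized to uninhibited-enzyme controls against log concentration. Urea from 60-min, 37 °C turnover of L-arginine with manganese sulfate was detected after acid o-phthaldialdehyde/primaquine quench and 10 min colour development. Arginase I and II came from 100 ng/ml stocks in pH 7.4 phosphate with ovalbumin.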

[2] = target: T2, human arginase I (ARG I) (Homo sapiens, UniProt P05089); experiment: Inhibition of arginase I, spectrophotometric urea assay at 530 nm; format: biochemical
T2 sequence (P05089 1-322): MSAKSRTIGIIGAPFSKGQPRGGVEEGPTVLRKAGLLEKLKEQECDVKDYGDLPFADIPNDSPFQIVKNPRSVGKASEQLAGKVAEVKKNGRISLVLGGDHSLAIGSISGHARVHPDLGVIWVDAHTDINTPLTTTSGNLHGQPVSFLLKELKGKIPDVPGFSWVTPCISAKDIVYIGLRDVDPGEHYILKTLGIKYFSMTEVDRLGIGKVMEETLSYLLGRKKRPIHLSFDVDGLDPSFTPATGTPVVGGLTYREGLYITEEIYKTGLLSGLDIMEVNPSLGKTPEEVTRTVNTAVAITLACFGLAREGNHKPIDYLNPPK
In short: as §1

[3] = Formula I compounds, Table 2, read-out: Potency (ARG II)
[4] = Formula I compounds, Table 2, read-out: Potency (ARG I)

Structure (SMILES) | IC50 [1, 3] | IC50 [2, 4] | IC50 [1] | IC50 [2]
NC(CCCCB(O)O)(CCN1CCC[C@H]1CN1CCCC1)C(=O)O (stereo partly drawn) [compound 40, 2-amino-6-borono-2-(2-((S)-2-(pyrrolidin-1-ylmethyl)pyrrolidin-1-yl)ethyl)hexanoic acid trihydrochloride] | 2000 to 5000 nM | 1000 to 2000 nM | – | –
COC1CCN(CCC(N)(CCCCB(O)O)C(=O)O)CC1 (stereo not drawn) [compound 41, 2-amino-6-borono-2-(2-(4-methoxypiperidin-1-yl)ethyl)hexanoic acid dihydrochloride] | 2000 to 5000 nM | 1000 to 2000 nM | – | –
NC(CCCCB(O)O)(CCN1CCCC1c1cc2ccccc2o1)C(=O)O (stereo not drawn) [compound 42, 2-amino-2-(2-(2-(benzofuran-2-yl)pyrrolidin-1-yl)ethyl)-6-boronohexanoic acid dihydrochloride] | 2000 to 5000 nM | 2000 to 5000 nM | – | –
CN(CCO)CCC(N)(CCCCB(O)O)C(=O)O (stereo not drawn) [compound 43, 2-amino-6-borono-2-(2-((2-hydroxyethyl)(methyl)amino)ethyl)hexanoic acid dihydrochloride] | 2000 to 5000 nM | 1000 to 2000 nM | – | –
NC(CCCCB(O)O)(CCN1CCC(F)(F)C1)C(=O)O (stereo not drawn) [compound 44, 2-amino-6-borono-2-(2-(3,3-difluoropyrrolidin-1-yl)ethyl)hexanoic acid dihydrochloride] | > 5000 nM | > 5000 nM | – | –
CC(=O)C1(c2ccccc2)CCN(CCC(N)(CCCCB(O)O)C(=O)O)CC1 (stereo not drawn) [compound 45, 2-(2-(4-acetyl-4-phenylpiperidin-1-yl)ethyl)-2-amino-6-boronohexanoic acid dihydrochloride] | – | – | 2000 to 5000 nM | 1000 to 2000 nM
NC(CCCCB(O)O)(CCN1CCC[C@@H]1C(F)(F)F)C(=O)O (stereo partly drawn) [compound 46, 2-amino-6-borono-2-(2-((R)-2-(trifluoromethyl)pyrrolidin-1-yl)ethyl)hexanoic acid dihydrochloride] | > 5000 nM | > 5000 nM | – | –
NC(CCCCB(O)O)(CCN1CCC(F)CC1)C(=O)O (stereo not drawn) [compound 47, 2-amino-6-borono-2-(2-(4-fluoropiperidin-1-yl)ethyl)hexanoic acid dihydrochloride] | 2000 to 5000 nM | 1000 to 2000 nM | – | –
CN(CCC(N)(CCCCB(O)O)C(=O)O)Cc1ccc(F)c(C(F)(F)F)c1 (stereo not drawn) [compound 48, 2-amino-6-borono-2-(2-((4-fluoro-3-(trifluoromethyl)benzyl)(methyl)amino)ethyl)hexanoic acid dihydrochloride] | > 5000 nM | 2000 to 5000 nM | – | –
CN1CCCN(CCC(N)(CCCCB(O)O)C(=O)O)CC1 (stereo not drawn) [compound 49, 2-amino-6-borono-2-(2-(4-methyl-1,4-diazepan-1-yl)ethyl)hexanoic acid dihydrochloride] | 2000 to 5000 nM | 2000 to 5000 nM | – | –
COc1ccccc1N1CCN(CCC(N)(CCCCB(O)O)C(=O)O)CC1 (stereo not drawn) [compound 50, 2-amino-6-borono-2-(2-(4-(2-methoxyphenyl)piperazin-1-yl)ethyl)hexanoic acid dihydrochloride] | > 5000 nM | > 5000 nM | – | –
NCCN(CCN)CCC(N)(CCCCB(O)O)C(=O)O (stereo not drawn) [compound 51, 2-amino-2-(2-(bis(2-aminoethyl)amino)ethyl)-6-boronohexanoic acid tetrahydrochloride] | 2000 to 5000 nM | 1000 to 2000 nM | – | –
NC(CCCCB(O)O)(CCN1CCCCC1C(=O)O)C(=O)O (stereo not drawn) [compound 52, 1-(3-amino-7-borono-3-carboxyheptyl)piperidine-2-carboxylic acid dihydrochloride] | 2000 to 5000 nM | 2000 to 5000 nM | – | –
NC(CCCCB(O)O)(CCN1CCC[C@@H](C(=O)O)C1)C(=O)O (stereo partly drawn) [compound 53, (3R)-1-(3-amino-7-borono-3-carboxyheptyl)piperidine-3-carboxylic acid] | 2000 to 5000 nM | 2000 to 5000 nM | – | –
CN(C)C(=O)[C@@H]1CCCN1CCC(N)(CCCCB(O)O)C(=O)O (stereo partly drawn) [compound 54, 2-amino-6-borono-2-(2-((S)-2-(dimethylcarbamoyl)pyrrolidin-1-yl)ethyl)hexanoic acid dihydrochloride] | > 5000 nM | > 5000 nM | – | –
